Measured values as given in patent US20260345838A1, “IDENTIFICATION AND/OR TREATMENT OF CANCER” (CLARITY PHARMACEUTICALS LIMITED, priority 2022, published 2026).
Where “and” joins values, the source holds several entries; their conditions need not be identical. Equal entries are not always repeated.

Assays:
[1] = test system: metastatic ER+/PR+/HER2− breast cancer; conditions: compared to triple negative subtypes; cited from earlier work
[2] = test system: metastatic ER+/PR+/HER2− breast cancer; test: PET imaging in women with metastatic ER+/PR+/HER2− breast cancer; assay type: in vivo, human
Method: Example 5—Administration of ^64Cu-Sar-BBN for Radioimaging
(§1) A dose of 200 MBq ^64Cu-Sar-BBN was administered to a subject by slow intravenous bolus injection. The subject was imaged by PET/CT and the images analysed to determine the location, size and volume of any cancerous lesions present, which is indicated by the decay products of the ^64Cu radioisotope detected.
Women with clinical progression of metastatic ER+/PR+/HER2− breast cancer requiring re-staging were administered ^18FDG and images of each patient acquired by PET. Imaging with ^64Cu-Sar-BBN PET (with 200 MBq ^64Cu-Sar-BBN administered by IV injection) was performed within 2 weeks of imaging by ^18FDG. Qualitative interpretation of the PET studies was performed by accredited nuclear medicine physicians. Quantitative analysis was performed using MIM Software, Cleveland. Comparison of the images obtained from each subject after administration of both ^18FDG and ^64Cu-Sar-BBN can be seen in FIGS. 1 to 6 (see Table 1).

[3] = test system: prostate cancer; test: PET imaging in post-radical prostatectomy prostate cancer patients with serial negative PSMA-PET; assay type: in vivo, human; conditions: FIGS. 7 to 10
Method: as §1
All patients received on average 200 MBq of [^64Cu]Cu-SAR-BBN intravenously with 60 minutes for uptake. Patient were scanned at 60-180 minutes post-injection with arms up, from vertex to mid thighs and at each bed position for two minutes. A low dose CT scan was performed with for attenuation correction and anatomical localisation. Comparison of the images obtained from each subject after administration of both ^18FDG and ^64Cu-Sar-BBN can be seen in FIGS. 7 to 10.

[4] = 18FDG PET, per patient, listed as FDG

SMILES | sensitivity of 18FDG-PET for ER+/PR+ breast cancer [1] | FDG SUVmax [2, 4] | FDG TTV (total tumor volume) [2, 4] | lesion detection compared with the other imaging ([2]; breast cancer patients, FIGS. 1 to 6) | number of lesions identified ([2]; patient of FIG. 4) | lesion detection [3]
OC[C@H]1OC(O)[C@H]([18F])[C@@H](O)[C@@H]1O (stereo partly shown) [^18FDG] | lower sensitivity for ER+/PR+ breast cancer, when compared to triple negative | 7 (2×) and 20 and <3 and 8 and 11 | 91 and 168 and 0 and 8 and 2 and 504 | did not reveal any tumors | less than 3 | failed to identify any recurrent lesions
O=C(O)CCc1ccc(O)c(CN(CCN(CC(=O)O)Cc2cc(CCC(=O)NCCCCCC(=O)NCCCC[C@H](NC(=O)N[C@@H](CCC(=O)O)C(=O)O)C(=O)O)ccc2O)CC(=O)O)c1.[Ga+3] [^68Ga-PSMA-11] |  |  |  |  |  | serial negative PSMA-PET
